Test results reported in patent publication US8039488B2, “Methods and compositions for inhibition of angiogenesis” (Children's Medical Center Corporation, priority 1996, dated 2011).

What was measured:
[1] = test system: bFGF induced angiogenesis; assay: Angiogenesis in the eye, assay described in Example 2, bFGF; type: in vivo, rabbit
Description: (§1) Angiogenesis in the eye, in the assay described in Example 2, is produced by the presence of bFGF (basic fibroblastic growth factor) and VEGF (vascular endothelial cell growth factor).
(§2) Pellets for implantation into rabbit corneas were made by mixing 110 μl of saline containing 12 μg of recombinant bFGF (Takeda Pharmaceuticals-Japan) with 40 mg of sucralfate (Bukh Meditec-Denmark); this suspension was added to 80 μl of 12% hydron (Interferon Sciences) in ethanol. 10 μl aliquots of this mixture was then pipetted onto Teflon pegs and allowed to dry producing approximately 17 pellets. A pellet was implanted into corneal micropockets of each eye of an anesthetized female New Zealand white rabbit, 2 mm from the limbus followed by topical application of erythromycin ointment onto the surface of the cornea. The animals were fed daily from 2 days post-implantation by gastric lavage with either drug suspended in 0.5% carboxymethyl cellulose or 0.5% carboxymethyl cellulose alone. Thalidomide was purchased from Andrulus Pharmaceutical (Maryland) and the EM-12 and Supidimide were kindly provided by Grunenthal GMBH (Germany). The animals were examined with a slit lamp every other day in a masked manner by the same corneal specialist. The area of corneal neovascularization was determined by measuring with a reticule the vessel length (L) from the limbus and the number of clock hours (C) of limbus involved. A formula was used to determine the area of a circular band segment: C/12*3.1416 [r^2−(r−L)^2] where r=6 mm the measured radius of the rabbit cornea.

[2] = test system: VEGF induced angiogenesis; assay: Angiogenesis in the eye, assay described in Example 2, VEGF; type: in vivo, rabbit
Description: as §1, §2

[3] = test system: bFGF induced angiogenesis; assay: Mouse corneal micropocket assay, bFGF pellets; type: in vivo, mice; details: for inhibition in vivo at 100 mg/kg: dose 100 mg/kg once daily, area of corneal neovascularization vs controls; for inhibition in vivo at 200 mg/kg: dose 200 mg/kg once daily; for inhibition of bFGF induced neovascularization: dose not given
Description: (§3) Six to eight week old C57B 16 male mice were obtained from Jackson Laboratories, MA. The mice were anesthetized, and 0.4×0.4 mm pockets were made in the stroma of the mouse cornea adjacent to the limbus. Pellets containing 80 ng of either bFGF or VEGF were […]. The pellets containing bFGF were implanted 1.0-1.2 mm from the limbal vessels, while the pellets containing VEGF were implanted 0.5-0.7 mm from the limbal vessels. Erythromycin was then topically applied.
(§4) The vascular response to the pellets was measured by maximal vessel length and number of clock hours of neovascularization 5 days after implantation of the bFGF pellets and 6 days after implantation of the VEGF pellets. The area of corneal neovascularization was calculated using the following formula which best approximated the area of neovascularization: Area (mm^2)=[π×clock hours×length (mm)×0.2 (mm)].
(§5) Inhibitory effect is expressed in percentage representing the area of corneal neovascularization by either bFGF or VEGF compared to controls (n=8/experiment) of the experiments in which that particular drug was tested. N=the number of eyes that were tested and drugs were given once daily either sc, ip or oral as described.
(§6) Six to eight week old C57B 16 male mice were obtained from Jackson Laboratories, MA. The mice were anesthetized, and 0.4×0.4 mm pockets were made in the stroma of the mouse cornea adjacent to the limbus. Pellets containing 80 ng of either bFGF or VEGF were implanted. The pellets containing bFGF were implanted 1.0-1.2 mm from the limbal vessels, while the pellets containing VEGF were implanted 0.5-0.7 mm from the limbal vessels. Erythromycin was then topically applied.
(§7) The mice were then treated with thalidomide, indomethacin, sulindac, or combinations of thalidomide with either indomethacin or sulindac. The vascular response to the pellets was measured by maximal vessel length and number of clock hours of neovascularization 5 days after implantation of the bFGF pellets and 6 days after implantation of the VEGF pellets. The area of corneal neovascularization was calculated using the following formula which best approximates the area of neovascularization: Area (mm^2)=[π×clock hours×length (mm)×0.2 (mm)].
Six to eight week old C57B16 male mice, obtained from Jackson Laboratories, MA, were anesthetized, and 0.4×0.4 mm pockets were made in the stroma of the mouse cornea adjacent to the limbus. Pellets containing 80 ng of bFGF were implanted 1.0-1.2 mm from the limbal vessels. Erythromycin was then topically applied.
The mice were then treated with sulindac, or one of the sulindac derivatives, sulindac sulfone or sulindac sulfide. The vascular response to the pellets was measured by maximal vessel length and number of clock hours of neovascularization 5 days after implantation of the bFGF pellets. The area of corneal neovascularization was calculated using the following formula which best approximates the area of neovascularization: Area (mm^2)=[π×clock hours×length (mm)×0.2 (mm)].
Inhibitory effect is expressed in percentage representing the area of corneal neovascularization by bFGF compared to controls (n=8/experiment. N=the number of eyes that were tested and drugs were given once daily either sc, ip or oral as described.

[4] = test system: bFGF induced corneal neovascularization; assay: Rabbit cornea angiogenesis assay; type: in vivo
Description: as §2
Pellets containing bFGF and sucralfate were implanted into micropockets of both corneas of rabbits according to Example II. Vessel ingrowth into clear cornea from the limbus was first noted on day 2 and treatments (200 mg/kg orally) were begun on this day. The area of corneal neovascularization was measured from day 4 through day 12. Day 8 measurements were used for comparison between groups. […] Statistical analysis was performed with ANOVA with ranked data to account for interexperimental variation and to guard against a non-normal distribution of data (i.e. outliers) by utilizing a nonparametric method.

[5] = test system: bFGF induced corneal neovascularization; assay: Rabbit cornea angiogenesis assay; type: in vivo; details: 100 mg/kg/day
[6] = test system: VEGF induced angiogenesis; assay: Mouse corneal micropocket assay, VEGF pellets; type: in vivo, mice; details: 6 days after implantation
Description: as §3, §4, §5, §6, §7

V2-carcinoma = V2-carcinoma tumor assay in rabbits; type: in vivo, rabbit; details: 17 days after start of treatment
Description: New Zealand White female rabbits, weighing approximately 1.5 kg, obtained from Charles River, Mass., were used for propagating the V2-carcinoma. This tumor originates from a Shope virus-induced papilloma. Small 0.5×0.5 cm pieces were implanted intramuscularly in the right thigh. Treatment with 200 mg/kg/day thalidomide (n=14), 60 mg/kg/day sulindac (n=5), or a combination of thalidomide and sulindac (n=10) was started at day 10 after tumor implantation, when the mean volume of the tumor was 6 cm^3. The control animals (n=13) were treated with methylcellulose. […] The data were collected in 3 separate experiments and each bar represents the standard error of the mean.

Crohn's disease = assay: Treatment of a patient with Crohn's disease; type: in vivo, human; details: 100 mg twice a day orally, one week
Description: A patient with Crohn's disease was treated using the methods of the present invention. […] Thalidomide was orally administered to them at a dosage of 100 mg twice a day.

[7] = Mus musculus, 120 h, 5 days after implantation
[8] = Mus musculus, 120 h, dose 25 mg/kg once daily, 5 days after implantation

## CO[C@@H]1[C@H](OC(=O)NC(=O)CCl)CC[C@]2(CO2)[C@H]1[C@@]1(C)O[C@@H]1CC=C(C)C [AGM 1470]
[1]; dose 30 mg/kg qod
  % Inhibition of bFGF induced angiogenesis: 48%

## CC(=O)Nc1ccc(O)cc1 [Acetaminophen]
[2]; dose 100 mg/kg
  % Inhibition of VEGF induced angiogenesis: 0%
[3]; [7]
  inhibition in vivo at 100 mg/kg: 0%
[1]; dose 100 mg/kg
  % Inhibition of bFGF induced angiogenesis: 0%

## CC(=O)Oc1ccccc1C(=O)O [Aspirin, aspirin]
[1]; dose 100 mg/kg
  % Inhibition of bFGF induced angiogenesis: 8%

## O=C1CCC(N2Cc3ccccc3C2=O)C(=O)N1 (stereo not shown) [EM-12]
[4]; 200 mg/kg orally, day 8
  median inhibition of the area of vascularized cornea: 42%
[4]; 200 mg/kg/day
  % inhibition in the rabbit cornea assay: 43%
[5]
  % inhibition in the rabbit cornea assay: 21%

## O=c1ccc2cc(O)c(O)cc2o1 [Esculetin, esculetin]
[3]; [7]
  inhibition in vivo at 200 mg/kg: 15%

## C[C@]12CCC(=O)C=C1CC[C@@H]1[C@@H]2[C@@H](O)C[C@@]2(C)[C@H]1CC[C@]2(O)C(=O)CO [Hydrocortisone, hydrocortisone]
[2]; dose 20 mg/kg
  % Inhibition of VEGF induced angiogenesis: 40%
[1]; dose 20 mg/kg
  % Inhibition of bFGF induced angiogenesis: 50%

## CC(C)Cc1ccc(C(C)C(=O)O)cc1 (stereo not shown) [Ibuprofen, ibuprofen]
[2]; dose 20 mg/kg
  % Inhibition of VEGF induced angiogenesis: 11%
[3]; [8]
  inhibition in vivo at 25 mg/kg: 6%
[6]; dose 25 mg/kg once daily
  % Inhibition of VEGF induced angiogenesis: 8%
[1]; dose 20 mg/kg
  % Inhibition of bFGF induced angiogenesis: 7%

## COc1ccc2c(c1)c(CC(=O)O)c(C)n2C(=O)c1ccc(Cl)cc1 [Indomethacin, indomethacin]
[3]; Mus musculus, 120 h, dose 5 mg/kg once daily, 5 days after implantation
  inhibition in vivo at 5 mg/kg: 59%
[6]; dose 5 mg/kg once daily
  % Inhibition of VEGF induced angiogenesis: 61%

## C[C@H](Cc1ccc(O)c(O)c1)[C@@H](C)Cc1ccc(O)c(O)c1 [NDGA, nordihydroguiaretic acid]
[3]; [8]
  inhibition in vivo at 25 mg/kg: 30%

## CS(=O)(=O)Nc1ccc([N+](=O)[O-])cc1OC1CCCCC1 [NS-398]
[3]
  inhibition of bFGF induced neovascularization: 25%

## O=C1CCC(N2C(=O)c3ccccc3C2=O)C(=O)O1 (stereo not shown) [PGA]
[4]; 200 mg/kg orally
  inhibitory activity on corneal neovascularization, in words: weaker inhibitory effects than thalidomide

## O=C1CCN(c2ccccc2)N1 [Phenidone, phenidone]
[3]; [7]
  inhibition in vivo at 100 mg/kg: 17%

## O=c1c(O)c(-c2ccc(O)c(O)c2)oc2cc(O)cc(O)c12 [Quercetin, quercetin]
[3]; Mus musculus, 120 h, dose 300 mg/kg once daily, 5 days after implantation
  inhibition in vivo at 300 mg/kg: 18%

## CCCC(C(=O)OCCN(CC)CC)(c1ccccc1)c1ccccc1.Cl [SKF525AHCL]
[3]
  inhibition of bFGF induced neovascularization: 25%

## CSc1ccc(/C=C2/C(C)=C(CC(=O)O)c3cc(F)ccc32)cc1 [Sulindac sulfide, sulindac sulfide]
[3]; [8]
  inhibition in vivo at 25 mg/kg: 31%
[3]; dose 50 mg/kg once daily, bFGF pellets, 5 days after implantation
  % inhibition: 34%
[3]
  inhibition of bFGF induced neovascularization: 34%

## CC1=C(CC(=O)O)c2cc(F)ccc2/C1=C\c1ccc(S(C)(=O)=O)cc1 [Sulindac sulfone, sulindac sulfone]
[3]; dose 25 mg/kg once daily, 5 days after implantation
  % Inhibition of bFGF induced angiogenesis: 31%
[3]
  inhibition of bFGF induced neovascularization: 31%

## CC1=C(CC(=O)O)c2cc(F)ccc2/C1=C\c1ccc([S+](C)[O-])cc1 (stereo not shown) [Sulindac, (Z)-5-Fluoro-2-methyl-1-[[4-(methyl-sulfinyl)phenyl]methylene]-1H-indene-3-acetic acid]
V2-carcinoma; 60 mg/kg/day oral
  inhibition of tumor growth: 35%
[2]; dose 25 mg/kg
  % Inhibition of VEGF induced angiogenesis: 54%
[3]; [8]
  inhibition in vivo at 25 mg/kg: 50%
[6]; dose 25 mg/kg once daily
  % Inhibition of VEGF induced angiogenesis: 55%
[1]; dose 25 mg/kg
  % Inhibition of bFGF induced angiogenesis: 52%

## O=C1CCC(N2C(=O)c3ccccc3S2(=O)=O)C(=O)N1 (stereo not shown) [Supidimide]
[4]; 200 mg/kg orally
  inhibitory activity on corneal neovascularization, in words: no activity
[4]; 200 mg/kg orally, day 8
  area of corneal neovascularization, % of control: 107 % of control

## O=C1CCC(N2C(=O)c3ccccc3C2=O)C(=O)N1 (stereo not shown) [Thalidomide, thalidomide]
Crohn's disease
  gastrointestinal symptoms, including diarrhea and cramping: lessened
  skin lesion on the lower leg: resolved
[4]; 200 mg/kg orally
  density of vessel ingrowth: markedly reduced
  sedation of the rabbits: did not demonstrate obvious sedation
[4]; 200 mg/kg orally (FIG. 7)
  onset of inhibition of angiogenesis: after only two doses
[4]; 200 mg/kg orally, day 8
  inhibition of the area of vascularized cornea, range in three experiments: 30-51%
  median inhibition of the area of vascularized cornea: 36%
V2-carcinoma; 200 mg/kg/day oral
  inhibition of tumor growth: 55%
[2]; dose 200 mg/kg
  % Inhibition of VEGF induced angiogenesis: 44%
[3]; [7]
  inhibition in vivo at 200 mg/kg: 41%
[6]; dose 200 mg/kg once daily
  % Inhibition of VEGF induced angiogenesis: 40%
[1]; dose 200 mg/kg
  % Inhibition of bFGF induced angiogenesis: 42%

## O=C(O)c1cc2cc(Cc3cccnc3)ccc2o1 [furegrelate sodium]
[3]
  inhibition of bFGF induced neovascularization: 22%

## carbomethylheptyl imidazole
[3]
  inhibition of bFGF induced neovascularization: 32%
